Experimental data reported in US20230265151A1, “GIP/GLP1 CO-AGONIST COMPOUNDS” (priority 2020, published 2023).
Like-named read-outs stand apart in the source and are kept apart here.

Key:
Format in all cases: cell-based
[1] = biological target: T1, hGIPR (Homo sapiens, UniProt P48546); assay: Functional cAMP formation (HTRF) in HEK-293 clonal cells expressing hGIPR, 0.1% bovine casein, without or with 1.0% human serum albumin; details: for Emax: percent of maximal response to GIP(1-42)NH2; for EC50: cAMP
T1 construct: expressed in transfected cells
T1 sequence (P48546 22-466): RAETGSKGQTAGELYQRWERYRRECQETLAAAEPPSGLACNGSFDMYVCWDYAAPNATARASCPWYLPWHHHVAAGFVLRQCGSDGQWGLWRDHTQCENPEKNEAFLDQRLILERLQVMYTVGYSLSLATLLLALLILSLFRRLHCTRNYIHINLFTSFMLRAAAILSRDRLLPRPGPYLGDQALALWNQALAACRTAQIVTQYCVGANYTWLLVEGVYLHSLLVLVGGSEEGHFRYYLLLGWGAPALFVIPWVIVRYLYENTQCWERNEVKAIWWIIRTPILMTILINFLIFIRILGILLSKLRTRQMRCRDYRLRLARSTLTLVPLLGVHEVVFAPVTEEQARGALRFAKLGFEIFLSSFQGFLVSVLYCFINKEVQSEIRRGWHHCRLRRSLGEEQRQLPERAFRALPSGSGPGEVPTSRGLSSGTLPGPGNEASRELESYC
In short: (§1)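 Readings of the HTRF 665/620 nm ratio, which falls as cAMP rises, were converted to nM cAMP using a standard curve after 30 min peptide exposure at 37° C.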

[2] = biological target: hGLP-1R (Homo sapiens, UniProt P43220); assay: Functional cAMP formation (HTRF) in HEK-293 clonal cells expressing hGLP-1R, 0.1% bovine casein, without or with 1.0% human serum albumin; set-up: expressed in transfected cells; details: for Emax: percent of maximal response to GLP-1(7-36)NH2; for EC50: cAMP
Chain of hGLP-1R (P43220 24-463): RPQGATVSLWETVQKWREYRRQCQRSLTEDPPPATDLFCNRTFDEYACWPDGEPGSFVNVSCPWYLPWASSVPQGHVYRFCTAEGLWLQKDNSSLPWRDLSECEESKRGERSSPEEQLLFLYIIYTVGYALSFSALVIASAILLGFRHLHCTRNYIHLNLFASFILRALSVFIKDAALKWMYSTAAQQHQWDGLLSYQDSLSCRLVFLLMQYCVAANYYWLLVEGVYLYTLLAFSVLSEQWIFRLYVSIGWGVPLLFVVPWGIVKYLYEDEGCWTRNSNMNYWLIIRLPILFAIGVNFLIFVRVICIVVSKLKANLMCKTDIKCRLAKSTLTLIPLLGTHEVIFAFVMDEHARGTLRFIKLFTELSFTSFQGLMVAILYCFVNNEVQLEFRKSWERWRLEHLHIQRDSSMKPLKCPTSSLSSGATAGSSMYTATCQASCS
In short: as §1

[3] = biological target: T2, hGCGR (Homo sapiens, UniProt P47871); assay: Functional cAMP formation (HTRF) in HEK-293 clonal cells expressing hGCGR, 0.1% bovine casein, without or with 1.0% human serum albumin; details: cAMP, 37° C.
T2 construct: expressed in transfected cells
T2 sequence (P47871 26-477): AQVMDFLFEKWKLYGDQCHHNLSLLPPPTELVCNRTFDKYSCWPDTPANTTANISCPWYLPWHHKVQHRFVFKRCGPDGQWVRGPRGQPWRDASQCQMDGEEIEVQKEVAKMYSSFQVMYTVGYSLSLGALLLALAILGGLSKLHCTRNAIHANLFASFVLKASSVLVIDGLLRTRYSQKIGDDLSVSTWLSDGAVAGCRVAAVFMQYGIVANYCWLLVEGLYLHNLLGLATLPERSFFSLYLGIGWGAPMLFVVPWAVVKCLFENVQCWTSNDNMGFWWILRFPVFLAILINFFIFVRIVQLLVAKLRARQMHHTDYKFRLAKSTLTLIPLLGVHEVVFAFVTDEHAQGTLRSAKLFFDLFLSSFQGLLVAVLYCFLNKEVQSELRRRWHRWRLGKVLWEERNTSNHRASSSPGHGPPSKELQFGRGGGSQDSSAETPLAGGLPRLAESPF
In short: as §1

[4] = HEK293, cAMP, 37° C., 0.1% bovine casein and 1.0% human serum albumin, read-out: hGIPR Emax, % ± SEM
[5] = 37° C., 0.1% bovine casein (no human serum albumin), geometric mean, read-out: hGIPR EC50, nM (SEM, n)
[6] = HEK293, cAMP, 37° C., 0.1% bovine casein, arithmetic mean, read-out: hGLP-1R Emax, % ± SEM
[7] = 37° C., 0.1% bovine casein (no human serum albumin), geometric mean, read-out: hGLP-1R EC50, nM (SEM, n)
[8] = 0.1% bovine casein (no human serum albumin), geometric mean, read-out: hGCGR EC50, nM (SEM, n)
[9] = 0.1% bovine casein and 1.0% human serum albumin, geometric mean (SEM, n), read-out: hGCGR EC50, nM (SEM, n)
[10] = HEK293, read-out: hGIPR Emax, % ± SEM, cAMP, 37° C., 0.1% bovine casein and 1.0% human serum albumin
[11] = hGIPR EC50, nM (SEM, n), 37° C., 0.1% bovine casein (no human serum albumin), geometric mean
[12] = HEK293, read-out: hGLP-1R Emax, % ± SEM, cAMP, 37° C., 0.1% bovine casein, arithmetic mean
[13] = hGLP-1R EC50, nM (SEM, n), 37° C., 0.1% bovine casein (no human serum albumin), geometric mean
[14] = hGCGR EC50, nM (SEM, n), 0.1% bovine casein (no human serum albumin), geometric mean
[15] = hGCGR EC50, nM (SEM, n), 0.1% bovine casein and 1.0% human serum albumin, geometric mean (SEM, n)

Q: What does the source list for `CC[C@H](C)[C@H](NC(=O)[C@H](CC(C)C)NC(=O)[C@](C)(Cc1ccc(O)cc1)NC(=O)[C@H](CCCCNC(=O)COCCOCCNC(=O)CCCCCCCNC(=O)CC[C@H](NC(=O)CCCCCCCCCCCCC(=O)O)C(=O)O)NC(=O)[C@@H](NC(=O)[C@H](Cc1ccccc1)NC(=O)[C@H](CCCN)NC(=O)C(C)(C)NC(=O)[C@H](CCC(N)=O)NC(=O)[C@H](C)NC(=O)[C@H](CCC(N)=O)NC(=O)[C@H](CCCN)NC(=O)[C@H](CC(=O)O)NC(=O)[C@H](CC(C)C)NC(=O)[C@](C)(CC(C)C)NC(=O)[C@@H](NC(=O)C(C)(C)NC(=O)[C@H](Cc1ccncc1)NC(=O)[C@H](CC(=O)O)NC(=O)[C@H](CO)NC(=O)[C@@H](NC(=O)[C@](C)(Cc1ccccc1F)NC(=O)[C@@H](NC(=O)CNC(=O)[C@H](CCC(=O)O)NC(=O)C(C)(C)NC(=O)[C@@H](N)Cc1ccc(O)cc1)[C@@H](C)O)[C@@H](C)O)[C@@H](C)CC)[C@@H](C)CC)C(=O)N[C@@H](CCCCNC(=O)COCCOCCNC(=O)CCCCCCCNC(=O)CC[C@H](NC(=O)CCCCCCCCCCCCC(=O)O)C(=O)O)C(=O)NCC(=O)NCC(=O)N1CCC[C@H]1C(=O)N[C@@H](CO)C(=O)N[C@@H](CO)C(=O)NCC(=O)N[C@@H](C)C(=O)N1CCC[C@H]1C(=O)N1CCC[C@H]1C(=O)N1CCC[C@H]1C(=O)N[C@@H](CO)C(N)=O` [Example 450]?
A: Emax [1, 4]: 91.4%; EC50 [1, 5]: 0.0138 nM; Emax [2, 6]: 120%; EC50 [2, 7]: 0.201 nM; EC50 ([2]; 37° C., 0.1% bovine casein and 1.0% human serum albumin, geometric mean (SEM, n), read-out: hGLP-1R EC50, nM (SEM, n)): 32.3 nM; EC50 [3, 8]: > 9950 nM; EC50 [3, 9]: > 9950 nM

Q: `CC[C@H](C)[C@H](NC(=O)[C@H](CC(C)C)NC(=O)[C@](C)(Cc1ccc(O)cc1)NC(=O)[C@H](CCCCNC(=O)CCCCCCCNC(=O)COCCOCCNC(=O)CC[C@H](NC(=O)CCCCCCCCCCCCC(=O)O)C(=O)O)NC(=O)[C@@H](NC(=O)[C@H](Cc1ccccc1)NC(=O)[C@H](CCCN)NC(=O)C(C)(C)NC(=O)[C@H](CCC(N)=O)NC(=O)[C@H](C)NC(=O)[C@H](CCC(N)=O)NC(=O)[C@H](CCCN)NC(=O)[C@H](CC(=O)O)NC(=O)[C@H](CC(C)C)NC(=O)[C@](C)(CC(C)C)NC(=O)[C@@H](NC(=O)C(C)(C)NC(=O)[C@H](Cc1ccncc1)NC(=O)[C@H](CC(=O)O)NC(=O)[C@H](CO)NC(=O)[C@@H](NC(=O)[C@](C)(Cc1ccccc1F)NC(=O)[C@@H](NC(=O)CNC(=O)[C@H](CCC(=O)O)NC(=O)C(C)(C)NC(=O)[C@@H](N)Cc1ccc(O)cc1)[C@@H](C)O)[C@@H](C)O)[C@@H](C)CC)[C@@H](C)CC)C(=O)N[C@@H](CCCCNC(=O)CCCCCCCNC(=O)COCCOCCNC(=O)CC[C@H](NC(=O)CCCCCCCCCCCCC(=O)O)C(=O)O)C(=O)NCC(=O)NCC(=O)N1CCC[C@H]1C(=O)N[C@@H](CO)C(=O)N[C@@H](CO)C(=O)NCC(=O)N[C@@H](C)C(=O)N1CCC[C@H]1C(=O)N1CCC[C@H]1C(=O)N1CCC[C@H]1C(=O)N[C@@H](CO)C(N)=O` [Example 452] was tested. Which Emax [1, 4] did it give?
A: 100%

Q: And the EC50 [1, 5]?
A: 0.0192 nM

Q: And the Emax [2, 6]?
A: 117%

Q: What about the EC50 [2, 7] of the same compound?
A: 0.259 nM

Q: And the EC50 [3, 8]?
A: > 9950 nM

Q: What about the EC50 [3, 9] of the same compound?
A: > 9950 nM

Q: Which Emax [1, 10] does the source give for `CC[C@H](C)[C@H](NC(=O)[C@H](CC(C)C)NC(=O)[C@](C)(Cc1ccc(O)cc1)NC(=O)[C@H](CCCCNC(=O)COCCOCCNC(=O)CCCCCCCNC(=O)CC[C@H](NC(=O)CCCCCCCCCOc1ccc(C(=O)O)cc1)C(=O)O)NC(=O)[C@@H](NC(=O)[C@H](Cc1ccccc1)NC(=O)[C@H](CCCN)NC(=O)C(C)(C)NC(=O)[C@H](CCC(N)=O)NC(=O)[C@H](C)NC(=O)[C@H](CCC(N)=O)NC(=O)[C@H](CCCN)NC(=O)[C@H](CC(=O)O)NC(=O)[C@H](CC(C)C)NC(=O)[C@](C)(CC(C)C)NC(=O)[C@@H](NC(=O)C(C)(C)NC(=O)[C@H](Cc1ccncc1)NC(=O)[C@H](CC(=O)O)NC(=O)[C@H](CO)NC(=O)[C@@H](NC(=O)[C@](C)(Cc1ccccc1F)NC(=O)[C@@H](NC(=O)CNC(=O)[C@H](CCC(=O)O)NC(=O)C(C)(C)NC(=O)[C@@H](N)Cc1ccc(O)cc1)[C@@H](C)O)[C@@H](C)O)[C@@H](C)CC)[C@@H](C)CC)C(=O)N[C@@H](CCCCNC(=O)COCCOCCNC(=O)CCCCCCCNC(=O)CC[C@H](NC(=O)CCCCCCCCCOc1ccc(C(=O)O)cc1)C(=O)O)C(=O)NCC(=O)NCC(=O)N1CCC[C@H]1C(=O)N[C@@H](CO)C(=O)N[C@@H](CO)C(=O)NCC(=O)N[C@@H](C)C(=O)N1CCC[C@H]1C(=O)N1CCC[C@H]1C(=O)N1CCC[C@H]1C(=O)N[C@@H](CO)C(N)=O` [Example 454] here?
A: 91.5%

Q: What about the EC50 [1, 11] of the same compound?
A: 0.0202 nM

Q: What about the Emax [2, 12] of the same compound?
A: 114%

Q: And the EC50 [2, 13]?
A: 0.266 nM

Q: What about the EC50 [3, 14] of the same compound?
A: > 9950 nM

Q: And the EC50 [3, 15]?
A: > 9950 nM

Q: What does the source list for `CC[C@H](C)[C@H](NC(=O)[C@H](CC(C)C)NC(=O)[C@](C)(Cc1ccc(O)cc1)NC(=O)[C@H](CCCCNC(=O)CCCCCCCNC(=O)COCCOCCNC(=O)CC[C@H](NC(=O)CCCCCCCCCOc1ccc(C(=O)O)cc1)C(=O)O)NC(=O)[C@@H](NC(=O)[C@H](Cc1ccccc1)NC(=O)[C@H](CCCN)NC(=O)C(C)(C)NC(=O)[C@H](CCC(N)=O)NC(=O)[C@H](C)NC(=O)[C@H](CCC(N)=O)NC(=O)[C@H](CCCN)NC(=O)[C@H](CC(=O)O)NC(=O)[C@H](CC(C)C)NC(=O)[C@](C)(CC(C)C)NC(=O)[C@@H](NC(=O)C(C)(C)NC(=O)[C@H](Cc1ccncc1)NC(=O)[C@H](CC(=O)O)NC(=O)[C@H](CO)NC(=O)[C@@H](NC(=O)[C@](C)(Cc1ccccc1F)NC(=O)[C@@H](NC(=O)CNC(=O)[C@H](CCC(=O)O)NC(=O)C(C)(C)NC(=O)[C@@H](N)Cc1ccc(O)cc1)[C@@H](C)O)[C@@H](C)O)[C@@H](C)CC)[C@@H](C)CC)C(=O)N[C@@H](CCCCNC(=O)CCCCCCCNC(=O)COCCOCCNC(=O)CC[C@H](NC(=O)CCCCCCCCCOc1ccc(C(=O)O)cc1)C(=O)O)C(=O)NCC(=O)NCC(=O)N1CCC[C@H]1C(=O)N[C@@H](CO)C(=O)N[C@@H](CO)C(=O)NCC(=O)N[C@@H](C)C(=O)N1CCC[C@H]1C(=O)N1CCC[C@H]1C(=O)N1CCC[C@H]1C(=O)N[C@@H](CO)C(N)=O` [Example 456]?
A: Emax [1, 10]: 94.7%; EC50 [1, 11]: 0.0236 nM; EC50 ([1]; hGIPR EC50, nM (SEM, n), 37° C., 0.1% bovine casein and 1.0% human serum albumin, geometric mean (SEM, n)): 0.878 nM; Emax ([2]; HEK293, read-out: hGLP-1R Emax, % ± SEM, cAMP, 37° C., 0.1% bovine casein and 1.0% human serum albumin): 112%; Emax [2, 12]: 116%; EC50 [2, 13]: 0.341 nM; EC50 [3, 14]: > 9950 nM; EC50 [3, 15]: > 9950 nM

Q: How did the Emax [1, 4] turn out when `CC[C@H](C)[C@H](NC(=O)[C@H](CC(C)C)NC(=O)[C@](C)(Cc1ccc(O)cc1)NC(=O)[C@H](CCCCNC(=O)COCCOCCNC(=O)CC[C@H](NC(=O)CCCCCCCCCCCCC(=O)O)C(=O)O)NC(=O)[C@@H](NC(=O)[C@H](Cc1ccccc1)NC(=O)[C@H](CCCN)NC(=O)C(C)(C)NC(=O)[C@H](CCC(N)=O)NC(=O)[C@H](C)NC(=O)[C@H](CCC(N)=O)NC(=O)[C@H](CCCN)NC(=O)[C@H](CC(=O)O)NC(=O)[C@H](CC(C)C)NC(=O)[C@](C)(CC(C)C)NC(=O)[C@@H](NC(=O)C(C)(C)NC(=O)[C@H](Cc1ccncc1)NC(=O)[C@H](CC(=O)O)NC(=O)[C@H](CO)NC(=O)[C@@H](NC(=O)[C@](C)(Cc1ccccc1F)NC(=O)[C@@H](NC(=O)CNC(=O)[C@H](CCC(=O)O)NC(=O)C(C)(C)NC(=O)[C@@H](N)Cc1ccc(O)cc1)[C@@H](C)O)[C@@H](C)O)[C@@H](C)CC)[C@@H](C)CC)C(=O)N[C@@H](CCCCNC(=O)COCCOCCNC(=O)CC[C@H](NC(=O)CCCCCCCCCCCCC(=O)O)C(=O)O)C(=O)NCC(=O)NCC(=O)N1CCC[C@H]1C(=O)N[C@@H](CO)C(=O)N[C@@H](CO)C(=O)NCC(=O)N[C@@H](C)C(=O)N1CCC[C@H]1C(=O)N1CCC[C@H]1C(=O)N1CCC[C@H]1C(=O)N[C@@H](CO)C(N)=O` [Example 459] was run?
A: 89.3%

Q: And the EC50 [1, 5]?
A: 0.013 nM

Q: And the Emax [2, 6]?
A: 120%

Q: And the EC50 [2, 7]?
A: 0.18 nM

Q: And the EC50 [3, 8]?
A: > 9950 nM

Q: And the EC50 [3, 9]?
A: > 9950 nM
